Experiment: Lipophilicity, log D of the compound at pH 7.4
Assay type: physicochemical
Conditions: buffer

Compound	logD
C=Cc1cccc(Oc2cc3c(Nc4cccc(Cl)c4F)ncnc3cc2OC)n1	4.6
C=Cc1ccnc(Oc2cc3c(Nc4cccc(Cl)c4F)ncnc3cc2OC)c1	4.6
C=C(C)c1cc(Oc2cc3c(Nc4cccc(Cl)c4F)ncnc3cc2OC)ccn1	4.6
COc1cc2ncnc(Nc3cccc(Cl)c3F)c2cc1Oc1ccnc(/C=C/CN2CCOCC2)c1	3.8
COc1cc2ncnc(Nc3ccc(F)c(Cl)c3)c2cc1OCCCN1CCOCC1 [GEFITINIB]	3.8

Results, then the compound that gave them:

logD	Compound
4.2	COC/C=C/c1cc(Oc2cc3c(Nc4cccc(Cl)c4F)ncnc3cc2OC)ccn1
3.6	CN(C)C/C=C/C(=O)Nc1cc2c(Nc3ccc(F)c(Cl)c3)ncnc2cc1O[C@H]1CCOC1 [AFATINIB]
4.3	C=CC(=O)N1CCC(Oc2cc3c(Nc4ccc(Cl)c(Cl)c4F)ncnc3cc2OC)CC1 [POZIOTINIB]

— ChEMBL document CHEMBL5634191, “Vinylpyridine as a Tunable Covalent Warhead Targeting C797 in EGFR” (ACS Med Chem Lett, 2024)
